From patent US20130123287A1, “CONTROL AGENT FOR SOFT ROT AND CONTROL METHOD FOR THE SAME” (ISHIHARA SANGYO KAISHA, LTD., priority 2010, published 2013)

Experiments:
Type in all cases: cell-based
[1] = test system: bacteria causing the soft rot (Erwinia carotovora); assay: Inhibition test of growth of bacteria causing soft rot, Reference Test Example 3; settings: for formed colonies (growth state), grade: PSA medium, 27 degrees Celsius, 2 days
Excerpt: (§1) Inhibition test of growth of bacteria causing soft rot of potato An inhibition test of the growth of bacteria causing the soft rot was done, when a control agent was directly applied to the bacteria causing the soft rot. A given volume of each pesticide of triflumizol (TRIFUMIN WP [trade name] manufactured by Nippon Soda Co., Ltd.), chlorothalonil (Daconil 1000 [trade name], manufactured by Sumitomo Chemical Company, Limited) and streptomycin (Mycin Wettable powder [trade name] manufactured by Hokko Chemical Industry Co., Ltd.) was added together with a suspension of the bacteria causing the soft rot (Erwinia carotovora) to a preliminarily dissolved PSA culture medium (55 degrees Celsius) for subsequent thorough agitation, which was then spread on a plate for culturing at 27 degrees Celsius for 2 days, to examine the growth state. Subsequently, the formed colonies were examined according to the following three grades. • +: at the same level as the level of non-treated lot. Plus or minus: apparently less than the colonies of the non-treated lot. • −: almost no colonies observed.

[2] = test system: bacteria causing the soft rot (Erwinia carotovora); assay: Inhibition test of growth of bacteria causing soft rot, Reference Test Example 6; settings: for formed colonies (growth state), grade: PSA medium, 27 degrees Celsius, 3 days
Excerpt: An inhibition test of the growth of bacteria causing the soft rot was done, when a control agent was directly applied to the bacteria causing the soft rot. A given volume of each pesticide of fludioxonil (Seibia FL [trade name] manufactured by Syngenta Japan K.K.), iminoctadine albesilate salt (Bellkute WP [trade name], manufactured by Nippon Soda Co., Ltd.), iprodione (Rovral WP [trade name] manufactured by Bayer Crop Science Co., Ltd.), and streptomycin (Mycin Wettable powder [trade name] manufactured by Hokko Chemical Industry Co., Ltd.) was added together with a suspension of the bacteria causing the soft rot (Erwinia carotovora) to a preliminarily dissolved PSA culture medium (55 degrees Celsius) for subsequent thorough agitation, which was then spread on a plate for culturing at 27 degrees Celsius for 3 days, to examine the growth state. Subsequently, the formed colonies were examined according to the following three grades. • +: at the same level as the level of non-treated lot.
Plus or minus: apparently less than the colonies of the non-treated lot. • −: almost no colonies observed.

[3] = test system: bacteria causing the soft rot (Erwinia carotovora); assay: Inhibition test of growth of bacteria causing soft rot, Reference Test Example 4; settings: for formed colonies (growth state), grade: PSA medium, 27 degrees Celsius, 2 days
Excerpt: as §1, with “An” for “Inhibition test of growth of bacteria causing soft rot of potato An”, “kresoxim-methyl (STROBY DF [trade name] manufactured by BASF), thiophanate methyl (Topsin M WP [trade name], manufactured by Nippon Soda Co., Ltd), boscalid (Cantus DF [trade name] manufactured by BASF), procymidone (Sumilex” for “triflumizol (TRIFUMIN”, “by” for “by Nippon Soda Co., Ltd.), chlorothalonil (Daconil 1000 [trade name], manufactured by”, “Agro Co., Ltd.)” for “Company, Limited)”

[4] = active ingredient concentration of 10 ppm

## [H]/N=C(/N)N[C@H]1[C@H](O)[C@@H](O)[C@H](O[C@@H]2O[C@@H](C)[C@](O)(C=O)[C@H]2O[C@@H]2O[C@@H](CO)[C@H](O)[C@@H](O)[C@@H]2NC)[C@@H](N/C(N)=N\[H])[C@@H]1O [Streptomycin]
[1]; 1 ppm active ingredient
  formed colonies (growth state), grade: +, ±
[1]; 10 ppm active ingredient
  formed colonies (growth state), grade: −, −
[1]; [4]
  direct antibacterial activity against Erwinia carotovora (in words): exerted a direct antibacterial activity
[2]; 1 ppm active ingredient
  formed colonies (growth state), grade: +, +
[2]; 10 ppm active ingredient
  formed colonies (growth state), grade: −, ±
[2]; [4]
  direct antibacterial activity against Erwinia carotovora (in words): exerted a direct antibacterial activity
[3]; 1 ppm active ingredient
  formed colonies (growth state), grade: −, −
[3]; 10 ppm active ingredient
  formed colonies (growth state), grade: −, −
[3]; active ingredient concentration of 1 ppm
  direct antibacterial activity against Erwinia carotovora (in words): exerted a direct antibacterial activity
